# Tested on: BE(2)-C cell
# Assay: Cell proliferation assay (MTS) in BE(2)-C cells
# Assay type: cell-based
# Details: Homo sapiens, inhibition of BE(2)-C cell proliferation, 48 h
# Procedure: MTS testing kit was purchased from Promega. The DMEM, Fetal bovine serum and Penicillin-Streptomycin were purchased from Gibco. Dimethyl sulfoxide (DMSO) was purchased from Sigma.
# To investigate whether a compound is able to inhibit the activity of CDK4/6 in cells, mechanism-based assays using BE(2)-C cell (ATCC® number:CRL-2268) were developed. In the assay, inhibition of CDK4/6 was detected by the inhibition of BE(2)-C cell cells proliferation. BE(2)-C cell cells were cultured in culture flasks to 40-80% confluence in DMEM plus 10% fetal bovine serum. Cells were collected and plated onto 96-well plates at cell density of 3000 cells/well. Plates were incubated overnight at 37° C., with 5% CO2 to adhere. Compounds were added to the plates, the final compound concentrations were 10000, 3333, 1111, […], 123.5, 41.2, 13.7, 4.6 and 1.5 nM. Place plates at 37° C., with 5% CO2 for 48 h. After removing the medium, 20 μl MTS/100 μl medium mixture solution were added to each well and incubate the plates for exactly 2 hours. The reaction was terminated by adding 25 μl 10% SDS per well. Measure absorbance at 490 nm and 650 nm (reference wavelength). IC50 was calculated using GraphPad Prism 5.0.
# Select compounds prepared as described above were assayed according to the biological procedures described herein. “++++” stands for IC50 value below about 10 nM. “+++” stands for IC50 value between greater than about 10 nM to about 100 nM. “++” stands for IC50 value between greater than about 100 nM to about […]. “+” stands for IC50 value greater than 1 μM.
row,Compound,IC50 [nM]
1,"C[C@@H]1CCc2nc3c(F)cc(-c4nc(Nc5ccc(CN6CC7(CCNCC7)C6)cn5)ncc4F)cc3n21 [Example 89, (R)-N-(5-((2,7-diazaspiro[3.5]nonan-2-yl)methyl)pyridin-2-yl)-5-fluoro-4-(5-fluoro-1-methyl-2,3-dihydro-1H-benzo[d]pyrrolo[1,2-a]imidazol-7-yl)pyrimidin-2-amine]",> 100
2,"CN1CCC2(CC1)CCN(Cc1ccc(Nc3ncc(F)c(-c4cc(F)c5nc6n(c5c4)[C@H](CF)CC6)n3)nc1)CC2 [Example 30, (S)-5-fluoro-4-(5-fluoro-1-(fluoromethyl)-2,3-dihydro-1H-benzo[d]pyrrolo[1,2-a]imidazol-7-yl)-N-(5-((9-methyl-3,9-diazaspiro[5.5]undecan-3-yl)methyl)pyridin-2-yl)pyrimidin-2-amine]",> 100
3,"C[C@@H]1CCc2nc3c(F)cc(-c4nc(Nc5ccc(CN6CC7CN(C)CC7C6)cn5)ncc4F)cc3n21 (stereo partly drawn) [Example 99, 5-fluoro-4-((R)-5-fluoro-1-methyl-2,3-dihydro-1H-benzo[d]pyrrolo[1,2-a]imidazol-7-yl)-N-(5-((5-methylhexahydropyrrolo[3,4-c]pyrrol-2(1H)-yl)methyl)pyridin-2-yl)pyrimidin-2-amine]",10 to 100
4,"C[C@@H]1CCc2nc3c(F)cc(-c4nc(Nc5ccc(CN6CCC7(CC6)CNC7)cn5)ncc4F)cc3n21 [Example 86, (R)-N-(5-((2,7-diazaspiro[3.5]nonan-7-yl)methyl)pyridin-2-yl)-5-fluoro-4-(5-fluoro-1-methyl-2,3-dihydro-1H-benzo[d]pyrrolo[1,2-a]imidazol-7-yl)pyrimidin-2-amine]",> 100
5,"CN1CCN(Cc2cnc(Nc3cc(-c4cc(F)c5nc6n(c5c4)C(C)(C)CC6)c(F)cn3)nc2)CC1 [Example 165, N-(5-fluoro-4-(5-fluoro-1,1-dimethyl-2,3-dihydro-1H-benzo[d]pyrrolo[1,2-a]imidazol-7-yl)pyridin-2-yl)-5-((4-methylpiperazin-1-yl)methyl)pyrimidin-2-amine]",> 100
6,"CN1CC2CN(Cc3ccc(Nc4ncc(F)c(-c5cc(F)c6nc7n(c6c5)C5(CC7)CC5)n4)nc3)CC21 (stereo not shown) [Example 142, 5-fluoro-4-(5-fluoro-2,3-dihydrospiro[benzo[d]pyrrolo[1,2-a]imidazole-1,1′-cyclopropan]-7-yl)-N-(5-((6-methyl-3,6-diazabicyclo[3.2.0]heptan-3-yl)methyl)pyridin-2-yl)pyrimidin-2-amine]",> 1000
7,"Fc1cnc(Nc2ccc(CN3CC4CC(C3)N4)cn2)nc1-c1cc(F)c2nc3n(c2c1)C1(CC3)CC1 [Example 132, N-(5-((3,6-diazabicyclo[3.1.1]heptan-3-yl)methyl)pyridin-2-yl)-5-fluoro-4-(5-fluoro-2,3-dihydrospiro[benzo[d]pyrrolo[1,2-a]imidazole-1,1′-cyclopropan]-7-yl)pyrimidin-2-amine]",> 100
8,"OC[C@@H]1CCc2nc3c(F)cc(-c4nc(Nc5ccc(CN6CCNCC6)cn5)ncc4F)cc3n21 [Example 1, (S)-(5-fluoro-7-(5-fluoro-2-((5-(piperazin-1-ylmethyl)pyridin-2-yl)amino)pyrimidin-4-yl)-2,3-dihydro-1H-benzo[d]pyrrolo[1,2-a]imidazol-1-yl)methanol]",> 1000
9,"CCN1CCN(Cc2ccc(Nc3ncc(F)c(-c4cc(F)c5nc6n(c5c4)[C@@H](C(F)F)CC6)n3)nc2)CC1 [Example 154, (R)-4-(1-(difluoromethyl)-5-fluoro-2,3-dihydro-1H-benzo[d]pyrrolo[1,2-a]imidazol-7-yl)-N-(5-((4-ethylpiperazin-1-yl)methyl)pyridin-2-yl)-5-fluoropyrimidin-2-amine]",> 1000
10,"Fc1cnc(Nc2ccc(CN3CCN4CCC[C@@H]4C3)cn2)nc1-c1cc(F)c2nc3n(c2c1)[C@H](C(F)F)CC3 [Example 41, 4-((S)-1-(difluoromethyl)-5-fluoro-2,3-dihydro-1H-benzo[d]pyrrolo[1,2-a]imidazol-7-yl)-5-fluoro-N-(5-(((R)-hexahydropyrrolo[1,2-a]pyrazin-2(1H)-yl)methyl)pyridin-2-yl)pyrimidin-2-amine]",10 to 100
11,"CCN1CC2CN(Cc3ccc(Nc4ncc(F)c(-c5cc(F)c6nc7n(c6c5)[C@H](CF)CC7)n4)nc3)CC2C1 (stereo partly drawn) [Example 28, N-(5-((5-ethylhexahydropyrrolo[3,4-c]pyrrol-2(1H)-yl)methyl)pyridin-2-yl)-5-fluoro-4-((S)-5-fluoro-1-(fluoromethyl)-2,3-dihydro-1H-benzo[d]pyrrolo[1,2-a]imidazol-7-yl)pyrimidin-2-amine]",10 to 100
12,"Fc1cnc(Nc2ccc(N3CCNCC3)cn2)nc1-c1cc(F)c2nc3n(c2c1)[C@H](C(F)F)CC3 [Example 38, (S)-4-(1-(difluoromethyl)-5-fluoro-2,3-dihydro-1H-benzo[d]pyrrolo[1,2-a]imidazol-7-yl)-5-fluoro-N-(5-(piperazin-1-yl)pyridin-2-yl)pyrimidin-2-amine]",> 100
13,"CCN1CC2CN(Cc3ccc(Nc4ncc(F)c(-c5cc(F)c6nc7n(c6c5)[C@H](C(F)F)CC7)n4)nc3)CC2C1 (stereo partly drawn) [Example 50, 4-((S)-1-(difluoromethyl)-5-fluoro-2,3-dihydro-1H-benzo[d]pyrrolo[1,2-a]imidazol-7-yl)-N-(5-((5-ethylhexahydropyrrolo[3,4-c]pyrrol-2(1H)-yl)methyl)pyridin-2-yl)-5-fluoropyrimidin-2-amine]",10 to 100
14,"CCN1CCN(Cc2ccc(Nc3ncc(F)c(-c4cc(F)c5nc6n(c5c4)[C@H](CF)CC6)n3)nc2)CC1 [Example 6, (S)—N-(5-((4-ethylpiperazin-1-yl)methyl)pyridin-2-yl)-5-fluoro-4-(5-fluoro-1-(fluoromethyl)-2,3-dihydro-1H-benzo[d]pyrrolo[1,2-a]imidazol-7-yl)pyrimidin-2-amine]",> 100
15,"C[C@@]12CNC[C@]1(C)CN(Cc1ccc(Nc3ncc(F)c(-c4cc(F)c5nc6n(c5c4)C4(CC6)CC4)n3)nc1)C2 [Example 138, N-(5-(((3aR,6aS)-3a,6a-dimethylhexahydro-pyrrolo[3,4-c]pyrrol-2(1H)-yl)methyl)pyridin-2-yl)-5-fluoro-4-(5-fluoro-2,3-dihydro-spiro[benzo[d]pyrrolo[1,2-a]imidazole-1,1′-cyclopropan]-7-yl)pyrimidin-2-amine]",> 1000
16,"C[C@@H]1CCc2nc3c(F)cc(-c4nc(Nc5ccc(CN6CC7CNCC7C6)cn5)ncc4F)cc3n21 (stereo partly drawn) [Example 98, 5-fluoro-4-((R)-5-fluoro-1-methyl-2,3-dihydro-1H-benzo[d]pyrrolo[1,2-a]imidazol-7-yl)-N-(5-((hexahydropyrrolo[3,4-c]pyrrol-2(1H)-yl)methyl)pyridin-2-yl)pyrimidin-2-amine]",> 100
17,"Fc1cnc(Nc2ccc(CN3CCNCC3)cn2)nc1-c1cc(F)c2nc3n(c2c1)CCC3 [Example 149, 5-fluoro-4-(5-fluoro-2,3-dihydro-1H-benzo[d]pyrrolo[1,2-a]imidazol-7-yl)-N-(5-(piperazin-1-ylmethyl)pyridin-2-yl)pyrimidin-2-amine]",> 100
18,"C[C@@H]1CCc2nc3c(F)cc(-c4nc(Nc5ccc(CN6CCN7CCC[C@@H]7C6)cn5)ncc4F)cc3n21 [Example 85, 5-fluoro-4-((R)-5-fluoro-1-methyl-2,3-dihydro-1H-benzo[d]pyrrolo[1,2-a]imidazol-7-yl)-N-(5-(((R)-hexahydropyrrolo[1,2-a]pyrazin-2(1H)-yl)methyl)pyridin-2-yl)pyrimidin-2-amine]",10 to 100
19,"C[C@@H]1CCc2nc3c(F)cc(-c4nc(Nc5ccc(CN6CC7CCC(C6)N7)cn5)ncc4F)cc3n21 [Example 104, N-(5-((3,8-diazabicyclo[3.2.1]octan-3-yl)methyl)pyridin-2-yl)-5-fluoro-4-((R)-5-fluoro-1-methyl-2,3-dihydro-1H-benzo[d]pyrrolo[1,2-a]imidazol-7-yl)pyrimidin-2-amine]",10 to 100
20,"CC1(C)CCc2nc3c(F)cc(-c4nc(Nc5ccc(CN6CC7(CCNCC7)C6)cn5)ncc4F)cc3n21 [Example 111, N-(5-((2,7-diazaspiro[3.5]nonan-2-yl)methyl)pyridin-2-yl)-5-fluoro-4-(5-fluoro-1,1-dimethyl-2,3-dihydro-1H-benzo[d]pyrrolo[1,2-a]imidazol-7-yl)pyrimidin-2-amine]",> 100
21,"CN1CC2CCC(C1)N2Cc1ccc(Nc2ncc(F)c(-c3cc(F)c4nc5n(c4c3)[C@H](CF)CC5)n2)nc1 [Example 33, 5-fluoro-4-((S)-5-fluoro-1-(fluoromethyl)-2,3-dihydro-1H-benzo[d]pyrrolo[1,2-a]imidazol-7-yl)-N-(5-((3-methyl-3,8-diazabicyclo[3.2.1]octan-8-yl)methyl)pyridin-2-yl)pyrimidin-2-amine]",10 to 100
22,"Fc1cnc(Nc2ccc(CN3CCNCC3)cn2)nc1-c1cc(F)c2nc3n(c2c1)[C@@H](C(F)F)CC3 [Example 152, (R)-4-(1-(difluoromethyl)-5-fluoro-2,3-dihydro-1H-benzo[d]pyrrolo[1,2-a]imidazol-7-yl)-5-fluoro-N-(5-(piperazin-1-ylmethyl)pyridin-2-yl)pyrimidin-2-amine]",> 1000
